Like-named read-outs stand apart in the source and are kept apart here.
Experiments:
cells [1] = assay: Cell cycle analysis, aphidicolin-treated cells; type: cell-based; details: cells treated with aphidicolin
Description: (§1) Cell cycle analysis—Cells in log phase at the same confluency used for uptake experiments or growth inhibited cells by aphidicolin treatment were harvested using trypsin and washed twice with cold PBS. The cells were suspended as 1×10^6/ml density in PBS and fixed with 70% ethanol at −20° C. The DNA content of the cells was stained with 1 mL of staining buffer containing propidium iodide (5 μg/ml), RNAse A (1 mg/ml), glucose (1 mg/ml) in PBS. The stained cells were filtered through 70 μm nylon strainer and then analyzed for DNA content on FASCan flow-cytometer (Becton Dickinson) using Flo-Jo software.
(§2) Cell cycle vs. MTHF uptake. Biosynthesis of DNA and its precursor bases increases during S-phase of the cell cycle. […] Unsynchronized cells, as used for labeling, were alcohol-fixed and the DNA stained with propidium iodide (PI). DNA content can be used as a proxy for determining cell cycle stage. The DNA content was then analyzed by FACSCAN flow cytometer and data were processed by using Facscaliber software. […] Alternatively, when the cells were treated with aphidicolin, an inhibitor of DNA polymerase-α, the proliferation index is reduced up to 4-fold. […] In another experiment, we treated cells with a chemotherapeutic agent (methotrexate) for 24 h and then incubated with ^14C-MTHF for 1 h and observed a 90-95% decline in uptake relative to cells not treated with methotrexate.

MCF-10A [2] = assay: Cell cycle analysis (propidium iodide, flow cytometry); type: cell-based, human; details: aphidicolin-arrested cells
Description: as §1, §2

MDA-MB231 [3] = assay: as above; type: cell-based, human; details: aphidicolin-arrested cells
Description: as §1, §2

HT-29 [4] = assay: as above; type: cell-based, human; details: aphidicolin-arrested cells
Description: as §1, §2

FHC [5] = assay: as above; type: cell-based, human; details: aphidicolin-arrested cells
Description: as §1, §2

hTERT-HME1 [6] = assay: as above; type: cell-based, human; details: aphidicolin-arrested cells
Description: as §1, §2

HMEC [7] = assay: as above; type: cell-based, human; details: aphidicolin-arrested cells
Description: as §1, §2

MCF-7 [8] = assay: as above; type: cell-based, human; details: aphidicolin-arrested cells
Description: as §1, §2

[9] = tested on: MIAPaCa, PANC1, H292, A549, SQ20B, Cal 27 and Fadu; assay: Uptake and retention in cancer cell lines (Example 3); type: cell-based
Description: Additional studies were performed as described above using the following cell lines:
Pancreatic cancer - MIAPaCa and PANC1
Head and Neck cancer—SQ20B, Cal 27 and Fadu

MCF-7 [10] = tested on: MCF-7
HT-29 [11] = tested on: HT-29
MCF-10A [12] = tested on: MCF-10A
FHC [13] = tested on: FHC
MDA-MB231 [14] = tested on: MDA-MB231
[15] = Description: Stability of MTHF in culture medium—Folate-free RPMI 1640 (Invitrogen), fortified with 10% Fetal bovine serum (FBS, Sigma, qualified) (1 mL) in an eppendorf tube (1.5 mL) was spiked with MTHF (10 nM-100 μM) containing ˜0.05 μCi (˜1×10^5 DPM) of ^14C-MTHF as a radiotracer, and incubated under normal culture conditions (see below) for 0, 5, 30, 60, and 120 min. […] The mixture was incubated at 30° C. for 15 min and then filtered through 10K MWCO filter to remove protein. A 100 μl filtrate was analyzed by HPLC to determine the amount of dTMP formed from MTHF. A zorbax column (4.6 mm×15 cm) was eluted with a gradient of 2% to 5% methanol in 100 mM potassium phosphate, pH 6 over 2 min. The isocratic elution at this composition was conducted for 3 min and then changed linearly to 50% methanol in next 5 min. The system was held at this composition for next 5 min, and then increased up to 95% methanol to clean the column. Under these conditions, dUMP was eluted at 3.2 min, dTMP eluted at 5.8 min and MTHF/DHF eluted at 16 min. Identification and quantitation of dTMP was accomplished by comparing the retention time and area under peak of the standard solutions of dTMP.
Stability of MTHF in culture medium—The stability of MTHF might limit its pharmaceutical use. […] The inventors therefore measured the stability of MTHF in culture medium. Concentrations of MTHF ranging from 10 nM to 100 μM, containing a fixed amount of radiotracer (C-14) were incubated in culture medium, under the conditions used for cell incorporation experiments. MTHF remaining in the medium at different time points was measured by quantitatively converting dUMP +^14C-MTHF to ^14C-dTMP by the ecTSase-catalyzed reaction. The amount of ^14C-dTMP formed was then analyzed by HPLC connected with radioactive flow detector (FIG. 2). Data were fitted to a single exponential decay. The analytical assay in which ^14C-MTHF is quantitatively converted to ^14C-dTMP was developed, tested, and used in many of our kinetic isotope effect measurements while studying TSase.

hTERT-HME1 [16] = tested on: hTERT-HME1
HMEC [17] = tested on: HMEC
cancerous cell lines [18] = tested on: cancerous cell lines
cells [19] = assay: ^14C-MTHF uptake after methotrexate treatment; type: cell-based; details: methotrexate 24 h, then ^14C-MTHF 1 h
MIAPaCa tumor = assay: Animal studies with ^14C-MTHF, distribution of radioactivity; type: in vivo; details: nude mice with MIAPaCa tumor; after one hour
cancerous cell lines [20] = assay: Washout of label from cells / retention; type: cell-based, human
Description: (§3) Washout of label from cells—After labeling cells grown in four plates as described before, one culture plate was processed and total incorporation was measure by liquid scintillation counter (LSC). This uptake was regarded as 100%. From the remaining three culture plates, medium was removed, cells were washed twice with cold PBS and then normal growth medium (5 mL) was added at 37° for 30 min. The radiotracer released in the medium after 30 min was counted by LSC in triplicate, and cells were replenished with fresh 5 mL medium for next 30 min washing. The release of radiotracer was followed up to 120 min. Measurement of cell growth rate-The cells were seeded at a density of 4×10^4 cells/cm^2 in each of four 6-cm (20 cm^2) plates containing 5 mL medium and placed in incubator maintained at the conditions described above. Once the cells were in log-phase (48 h post plating), two plates were processed to count the total cells. The average number of cells from these plates was regarded as pl. After next 24 h, the remaining two plates were processed, and the total cells were counted again (p2). The doubling time was then calculated by using formula
(§4) To examine the release of radioactivity from these cells, the ^14C-MTHF-loaded cells (after 2 hours uptake) were placed in fresh complete medium containing an excess of unlabeled folate at 37° C. The medium was replaced after every 30 min and the radiotracer released in the medium was measured by LSC. […] In case of cancerous cell lines, the release of the radiotracer was not more than 20%. After 30 min, the release of the radioactivity in the medium was slow and reached to the background value after two successive washings. After washing, the label retained in each cell line was determined and plotted in FIG. 6.

normal cells = assay: Washout of label from cells / retention; type: cell-based, human
Description: as §3, §4

[21] = normal growing cells, 20 μM MTHF with ^14C tracer
[22] = first 30 min incubation in fresh medium after 2 hours uptake

C[C@@]1(CO)[C@H](O)CC[C@@]2(C)[C@H]1CC[C@H]1C[C@@H]3C[C@@]12CC[C@]3(O)CO [aphidicolin]
reduction of proliferation index (cells [1]): up to 4 fold | Proliferation index (S + G2M) (MCF-10A [2]): 3% | Proliferation index (S + G2M) (MDA-MB231 [3]): 6% | Proliferation index (S + G2M) (HT-29 [4]): 6% | Proliferation index (S + G2M) (FHC [5]): 3% | Proliferation index (S + G2M) (hTERT-HME1 [6]): 6% | Proliferation index (S + G2M) (HMEC [7]): 4% | Proliferation index (S + G2M) (MCF-7 [8]): 5%

(R)—N^5,N^10-methylene-5,6,7,8-tetrahydrofolate [MTHF]
uptake and retention of the radioactivity ([9]; pancreatic, lung, head and neck cancer cell lines): good uptake and retention | MTHF uptake (MCF-7 [10]; aphidicolin-arrested cells): 4.92 ×10^−3/10^6 cells | MTHF uptake (MCF-7 [10]; [21]): 80.0 ×10^−3/10^6 cells | MTHF uptake (HT-29 [11]; aphidicolin-arrested cells): 3.82 ×10^−3/10^6 cells | uptake, HT29 versus normal FHC cells (HT-29 [11]; colon cancer HT29 versus FHC, 20 μM MTHF): at least 30 times | MTHF uptake (HT-29 [11]; [21]): 48.9 ×10^−3/10^6 cells | MTHF uptake (MCF-10A [12]; aphidicolin-arrested cells): 2.34 ×10^−3/10^6 cells | MTHF uptake (MCF-10A [12]; [21]): 7.79 ×10^−3/10^6 cells | uptake in FHC cells (FIG. 4) (FHC [13]; 20 μM MTHF): not higher than background | MTHF uptake (FHC [13]; aphidicolin-arrested cells): 0.54 ×10^−3/10^6 cells | MTHF uptake (FHC [13]; [21]): 0.94 ×10^−3/10^6 cells | MTHF uptake (MDA-MB231 [14]; aphidicolin-arrested cells): 3.45 ×10^−3/10^6 cells | MTHF uptake (MDA-MB231 [14]; [21]): 81.3 ×10^−3/10^6 cells | rate of decomposition kdec ([15]; 10 nM MTHF in culture medium): 0.00121 s⁻¹ | half-life ([15]; 20 μM MTHF in culture medium): 1.3 h | rate of decomposition kdec ([15]; 100 μM MTHF in culture medium): 3.23e-05 s⁻¹ | stability of MTHF (time) ([15]; 100 μM MTHF in culture medium): up to 330 min | MTHF uptake (hTERT-HME1 [16]; aphidicolin-arrested cells): 5.74 ×10^−3/10^6 cells | MTHF uptake (hTERT-HME1 [16]; [21]): 67.3 ×10^−3/10^6 cells | MTHF uptake (HMEC [17]; aphidicolin-arrested cells): 1.23 ×10^−3/10^6 cells | MTHF uptake (HMEC [17]; [21]): 5.98 ×10^−3/10^6 cells | label uptake, cancerous versus non-cancerous control cell lines (cancerous cell lines [18]; HEMC-hTERT, MCF7 and MDA-MB231 versus HMEC, MCF10A, 20 μM MTHF): more than 3 fold | time at which uptake of label reached a maximum level (cancerous cell lines [18]; cancerous cell lines, steady state): 60 min

CN(Cc1cnc2nc(N)nc(N)c2n1)c1ccc(C(=O)N[C@@H](CCC(=O)O)C(=O)O)cc1 [methotrexate, reference compound]
effect of methotrexate on tracer uptake ([9]; small dose of MTX): uptake enhancement | decline in ^14C-MTHF uptake relative to untreated cells (cells [19]): 90-95%

Nc1nc2c(c(=O)[nH]1)N1[14CH2]N(c3ccc(C(=O)N[C@@H](CCC(=O)O)C(=O)O)cc3)C[C@H]1CN2 [^14C-MTHF, [11-^14C]—(R)—N^5,N^10-methylene-5,6,7,8-tetrahydrofolate]
distribution of radioactivity/cell (MIAPaCa tumor): most of the radioactivity/cell was in the tumor and kidney | label retained after washing (FIG. 6) (cancerous cell lines [20]; MDA-MB231, MCF7, hTERT, HT29, successive 30 min washes, 2 h): retained the highest amount of tracer | release of radiotracer (cancerous cell lines [20]; [22]): not more than 20% | release of radiotracer (normal cells; [22]): > 50% | label retained after washing (FIG. 6) (normal cells; non-cancer counterparts, successive 30 min washes, 2 h): retained a much lower, near-background amount of label

Reference: patent publication US20130034496A1, “POSITRON EMISSION TOMOGRAPHY TRACER” (UNIVERSITY OF IOWA RESEARCH FOUNDATION, priority 2011, published 2013)
